≈ marks a conversion by molar mass, not a printed value. Read-outs that look alike come from different tables or passages of the source.
Key:
[1] = TEM of assemblies in aqueous solution; format: physicochemical; conditions: 1.0 wt %; for diameter of assemblies on direct dissolution in water: without ALP, 1b spheres-like vesicle, 2b nanoribbon
Method: Sample solution (5 sufficient to cover the grid surface) was placed on the grid. Approximately 10 sec later, sample was rinsed by placing a large drop of the ddH2O on parafilm and allowing the grid to touch the water drop, with the sample-loaded surface facing the parafilm. The grid was tilted and water was gently absorbed from the edge of the grid using a filter paper sliver. This procedure was repeated 3 times. Immediately after rinsing, the staining was conducted by placing a large drop of the uranyl acetate (UA) stain solution on parafilm and allowing the grid to touch the stain solution drop, with the sample-loaded surface facing the parafilm. The grid was tilted and the stain solution was gently absorbed from the edge of the grid using a filter paper sliver. Next, the grid was allowed to dry in air and the grid was examined as soon as possible.
To further understand the inhibitory activity of 1a, transmission electron microscopy (TEM) was used to confirm the EISA of 1b. […] In contrast, uniform nanofibers (diameter of 10±2 nm) formed after the addition of ALP (1 U/mL) into the solution of 1a (FIG. 3B). The resulted nanofibers entangled with each other to result in a viscous solution. […] But the direct dissolution of 2b (1.0 wt %) provided an aqueous solution containing nanoribbon with the diameter of 17±2 nm and in several hundred nanometer length (FIG. 4B). These observations, collectively, confirmed that enzymatic reaction modulated the morphology of the assemblies of the cholesterol conjugates, which partially contributed to the different inhibitory activities of 1a, 1b, 2a, and 2b. That is, being exposed to the cancer cell, 1a (or 2a) turns into 1b (or 2b), a process catalyzed by the extra- or intracellular enzymes of the cancer cells; the resulting 1b (or 2b) self-assembled to form nanoscale assemblies that result in death of the cancer cell.

[2] = tested on: HS-5 cell line (human bone marrow stroma cell line); test: MTT assay, cell viability of HS-5; format: cell-based; conditions: 12.5 μM, 48 hours (FIG. 5A)
Method: (§1) HeLa, Saos-2, HS-5, HepG2, T98G, and A2780 cells were purchased from American-type Culture Collection (ATCC, USA). A2780cis cell was purchased from Sigma. HeLa cells, HepG-2 cells, and T98G cells were cultured in MEM Medium supplemented with 10% v/v fetal bovine serum, 100 U/mL penicillin, and 100 μg/mL streptomycin. Saos-2 cells were cultured in McCoy's 5a Medium (for Saos-2) supplemented with 15% v/v fetal bovine serum, 100 U/mL penicillin, and 100 μg/mL streptomycin. HS-5 cells were cultured in Dulbecco's Modified Eagle's medium (DMEM) supplemented with 10% v fetal bovine serum (FBS), 100 U/mL penicillin, and 100 μg/mL streptomycin. A2780cis cells were cultured in RPMI 1640 Medium supplemented with 10% v/v fetal bovine serum, 100 U/mL penicillin, and 100 μg/mL streptomycin (cisplatin only necessary every 2-3 passages). All cells were maintained at 37° C. in a humidified atmosphere of 5% CO2.
(§2) An MTT assay was used to test the cytotoxicity. All different cell lines were seeded in 96-well plates at 1×10^5 cells/well for 24 hours followed by removal of the culture medium and subsequent addition of culture medium containing different concentrations of the precursors. At designated time (24/48/72 hours), 10 μL MTT solution (5 mg/mL) was added to each well and incubated at 37° C. for another 4 hours, and then 100 μL of SDS-HCl solution was added to stop the reduction reaction and dissolve the purple formazan. The absorbance of each well at 595 nm was measured by a multimode microplate reader. The cytotoxicity assay was performed three times and the average value of the three measurements was taken.
To verify the selectivity of 1a against cancer cells, the HS-5 cell line (human bone marrow stroma cell line) was used; HS-5 hardly overexpresses ALP on cell surface. […] To further confirm that ALP on cell surface (i.e., as an ectophosphatase) contributed to the inhibitory activity of 1a, A2780cis were incubated with 1a and ALP (1 U/mL).
Additional cell viability assays were carried out using conjugates 1a and 1b, optionally with 3, against HepG2 human liver carcinoma cells, Saos-2 osteosarcoma cells, T98G glioblastoma cells, HS-5 (normal bone marrow stromal cells), A2780 ovarian cancer cells (parental line to A2780cis), and Kuramochi ovarian cancer cells. Conjugate 1a was particularly effective against ovarian and cervical cancer cells.

HeLa cells = test: MTT assay, cytotoxicity against HeLa; format: cell-based, human; conditions: for IC50: Homo sapiens, HeLa, 48 h, read-out: IC50 against HeLa cell
Method: as §1, §2
To confirm that assemblies of the cholesterol conjugate are able to inhibit other cancer cell lines, 1a was incubated with HeLa cells, a widely studied malignant cervical cancer cell line.

A2780cis cells = test: MTT assay, cytotoxicity against A2780cis; format: cell-based, human
Method: as §1, §2
The activity of conjugate 1a against a platinum-resistant, ovarian cancer cell line (A2780cis) (Behrens et al., “Characterization of a Cis-Diamminedichloroplatinum(Ii)-Resistant Human Ovarian Cancer Cell Line and its Use in Evaluation of Platinum Analogues,” Cancer Res. 47:414 (1987); Masuda et al., “Increased DNA Repair as a Mechanism of Acquired Resistance to Cis-Diamminedichloroplatinum (II) in Human Ovarian Cancer Cell Lines,” Cancer Res. 48:5713 (1988), which are hereby incorporated by reference in their entirety) was first examined. To assess the efficacy of conjugate 1a, the assay was carried out in parallel using the known, clinically used cytotoxic agent, cisplatin.

[3] = tested on: HeLa, A2780cis, OVASHO, MES-SA/dx5 and Saos-2 cells; test: NBD visualization of nano-aggregates in cancer cell lines (CLSM); format: cell-based; conditions: 25 μM; 11a in all five cell lines, 11b in OVASHO and MES-SA/dx5
Method: Different cancer cells at the density of 1.5×10^5 were seeded onto 3.5 cm confocal dish. After the growth of cells in cell incubator for 24 h, 11a (or 11b) at 25 μM was added to the above solution with completed medium. At designated times, PBS was used to wash cells 3 times for 1 minute. Hoechst 33342 was used to stain cell nucleus for 10 minutes, and cells were then washed using live cell imaging solution 3 times for 1 minute. Cells were maintained in live cell imaging solution, and CLSM was carried out immediately. The excitation of wavelength was 488 nm, and the emission was 500 nm to 596 nm.

A2780 cell line = test: Cell viability of unstimulated or selected A2780 cell line (acquired resistance); format: cell-based; conditions: after five weeks treatment with gradually increased concentrations; 24, 48, 72 h
Method: as §2
The activity of 1a against non-drug resistant cancer cells was assessed using the A2780 cell line.

[4] = 48 hours (FIG. 9A), unit inferred
[5] = read-out: IC50 against A2780cis, 72 hours
[6] = concentration of 100 μM (FIG. 10)

For `CC(C)CCC[C@@H](C)C1CC[C@H]2[C@@H]3CC=C4CC(OC(=O)NC(Cc5ccc(O)cc5)C(=O)O)CC[C@]4(C)[C@H]3CC[C@]12C` (stereo partly drawn) [1b, Cholesterol-D-Tyr], the “diameter of assemblies on direct dissolution in water” value [1] was 25±2 nm, the “cell viability / proliferation of HS-5” value [2] was “hardly inhibited” and the IC50 (HeLa cells) was 89.7 µM. The “cell viability / proliferation of A2780cis” value (A2780cis cells; 12.5 μM, 48 hours (FIG. 5A)) was “hardly inhibited” and the IC50 (A2780cis cells; Homo sapiens, A2780cis, 72 h, read-out: IC50 against A2780cis, 72 hours) was 50 µM.

With `CC(C)CCC[C@@H](C)C1CC[C@H]2[C@@H]3CC=C4CC(OC(=O)NC(Cc5ccc(OP(=O)(O)O)cc5)C(=O)O)CC[C@]4(C)[C@H]3CC[C@]12C` (stereo partly drawn) [2a, Cholesterol-(phospho)L-Tyr] the “morphology in aqueous solution without ALP” value ([1]; pH 7.4) was “disorder aggregates”, the “diameter of nanofibers formed after addition of ALP” value ([1]; pH 7.4, ALP 1 U/mL, 24 hours) was 15±2 nm and the IC50 (HeLa cells; [4]) was 43.8 µM. The “IC50 against A2780cis” value (A2780cis cells; 72 hours) was 15.2 µg/mL (≈ 22.6 µM) and the IC50 (A2780cis cells; [5]) was 22 µM.

With `CC(C)CCC[C@@H](C)C1CC[C@H]2[C@@H]3CC=C4CC(OC(=O)NC(Cc5ccc(O)cc5)C(=O)O)CC[C@]4(C)[C@H]3CC[C@]12C` (stereo partly drawn) [2b, Cholesterol-L-Tyr] the “diameter of assemblies on direct dissolution in water” value [1] was 17±2 nm, the IC50 (HeLa cells; [4]) was 59.2 µM and the IC50 (A2780cis cells; [5]) was 36 µM.

In the case of `CC(C)CCC[C@@H](C)C1CC[C@H]2[C@@H]3CC=C4CC(OC(=O)NC(Cc5ccc(OP(=O)(O)O)cc5)C(=O)N[C@H](CCCCNc5ccc([N+](=O)[O-])c6nonc56)C(=O)O)CC[C@]4(C)[C@H]3CC[C@]12C` (stereo partly drawn) [11a, cholesterol-(phospho)y-(NBD)k], the “presence of nano-aggregates in or on treated cells” value [3] is reported as “confirmed presence of nano-aggregates”.

With `CC(C)CCC[C@@H](C)C1CC[C@H]2[C@@H]3CC=C4CC(OC(=O)NC(Cc5ccc(O)cc5)C(=O)N[C@H](CCCCNc5ccc([N+](=O)[O-])c6nonc56)C(=O)O)CC[C@]4(C)[C@H]3CC[C@]12C` (stereo partly drawn) [11b, cholesterol-y-(NBD)k] the “presence of nano-aggregates in or on treated cells” value [3] was “confirmed presence of nano-aggregates”.

For `N.N.[Cl][Pt][Cl]` [cisplatin, reference compound], the “IC50 against A2780cis” value (A2780cis cells; 48 hours) was 21.2 µg/mL, the “IC50 against A2780cis” value (A2780cis cells; 72 hours) was 12.2 µg/mL and the IC50 (A2780cis cells; 72 hours, read-out: IC50 against A2780cis) was 41 µM. The “inhibition of A2780 and acquired drug resistance” value (A2780 cell line) was “caused platinum-resistance”.

With `CC(C)CCC[C@@H](C)C1CC[C@H]2[C@@H]3CC=C4CC(OC(=O)NC(Cc5ccccc5)C(=O)O)CC[C@]4(C)[C@H]3CC[C@]12C` (stereo partly drawn) [compound 3, Cholesterol-D-Phe] the “effect on HeLa cells” value (HeLa cells; [6]) was “innocuous” and the “effect on A2780cis cells” value (A2780cis cells; [6]) was “innocuous”.

Reference: patent publication US11040108B2, “Amino acid- and peptide-steroid conjugates and use thereof” (BRANDEIS UNIVERSITY, priority 2016, dated 2021)
